What was measured:
[1] = tested on: LNCaP prostate cancer cell line; conditions: LNCaP cells; at high levels of DHT
JN-DSRCT cell line = conditions: JN-DSRCT cells; at high levels of DHT
[2] = tested on: TC-71 Ewing sarcoma cells; conditions: TC-71 ES cells, lack AR expression

SMILES	proliferation on stimulation with AR agonist [1]	proliferation on stimulation with AR agonist (JN-DSRCT cell line)	proliferation on stimulation with AR agonist [2]
C[C@]12CC[C@H]3[C@@H](CCC4=CC(=O)CC[C@@]43C)[C@@H]1CC[C@@H]2O [testosterone]	increased proliferation	increased proliferation	no effect
C[C@]12CCC(=O)C[C@@H]1CC[C@@H]1[C@@H]2CC[C@]2(C)[C@@H](O)CC[C@@H]12 [DHT, 5a-dihydrotestosterone]	increased proliferation	increased proliferation	no effect and not
